# In US6171829A, “Physiologically active substance PF1191 and process for producing the same” (Meiji Seika Kaisha, Ltd., priority 1997, dated 2001):
# “Also recorded” adds a separate entry of the source.
# Key:
# [1] = system: primarily cultured chick telencephalon nerve cells; details: Neuroscience Letters, vol. 139, 205-208 (1992); result in words; cited from earlier work
# [2] = system: primarily cultured nerve cells of chick telencephalon; experiment: Inhibitory activity to kainic acid toxicity, primarily cultured nerve cells of chick telencephalon; type: cell-based
# Experimental: (§1) The inhibitory activities to kainic acid toxicity of the substance PF1191 on primarily cultured nerve cells of chick telencephalon and rat hippocampus were examined. The test with the use of the primarily cultured nerve cells of chick telencephalon was carried out in accordance with the method reported in Neuroscience Letters, vol. 139, 205-208 […], while the test with the use of the primarily cultured nerve cells of rat hippocampus was carried out in accordance with the method reported in Brain Research, 126(1977) 397-425.
# (§2) The molar concentration at which the cytotoxicity caused by the addition of 500 μM of kainic acid to the cultured cells was inhibited at a ratio of 50% was expressed in EC50 (effective concentration-fifty) in Table 1 below.
# [3] = system: primarily cultured nerve cells of rat hippocampus; experiment: Inhibitory activity to kainic acid toxicity, primarily cultured nerve cells of rat hippocampus; type: cell-based
# Experimental: as §1, §2
smiles,measurement,setting,value
"N#Cc1cc2[nH]c(=O)c(=O)[nH]c2cc1[N+](=O)[O-] [CNQX, 6-cyano-7-nitroquinoxaline-2,3-dione]",inhibition of kainic acid toxicity by non-NMDA receptor antagonists,[1],inhibited
"O=c1[nH]c2cc([N+](=O)[O-])c([N+](=O)[O-])cc2[nH]c1=O [DNQX, 6,7-dinitroquinoxaline-2,3-dione]",inhibition of kainic acid toxicity by non-NMDA receptor antagonists,[1],inhibited
"NS(=O)(=O)c1cccc2c1c([N+](=O)[O-])cc1[nH]c(=O)c(=O)[nH]c12 [NBQX, 6-nitro-7-sulfamoylbenzo[f]quinoxaline-2,3-dione]",inhibition of kainic acid toxicity by non-NMDA receptor antagonists,[1],inhibited
NC(C(=O)O)C(O)C1(C(=O)O)CCC(CC(NC(=O)c2cc(Cl)c(O)c(Cl)c2)C(=O)O)N1 (centres unmarked) [Substance PF1191],EC50,"[2]; Gallus gallus, chick telencephalon nerve cells + kainic acid (500 μM), read-out: 50% Effective conc. (EC50), inhibitory activity to kainic acid toxicity",1500 nM
same,inhibitory activity to kainic acid toxicity in comparison with DNQX,"[2]; chick telencephalon nerve cells, kainic acid 500 μM, result in words",stronger inhibitory activity to kainic acid toxicity than that of DNQX; also recorded: stronger inhibitory activity to kainic acid toxicity in comparison with the known substance DNQX
same,EC50,"[3]; rat hippocampus nerve cells + kainic acid (500 μM), read-out: 50% Effective conc. (EC50), inhibitory activity to kainic acid toxicity",450 nM
same,inhibitory activity to kainic acid toxicity in comparison with DNQX,"[3]; rat hippocampus nerve cells, kainic acid 500 μM, result in words",stronger inhibitory activity to kainic acid toxicity in comparison with the known substance DNQX
C=C(C)[C@H]1CN[C@H](C(=O)O)[C@H]1CC(=O)O [kainic acid],toxicity to primarily cultured chick telencephalon nerve cells,[1],toxic
